Each structure is given as a SMILES string.

For one compound, Activity and inhibition results are on record in ChEMBL document CHEMBL1800061 (J Med Chem, 2010).

For assay [1], the target named is Rho-associated protein kinase 2 (Homo sapiens) (UniProt O75116). Kind of assay: Inhibition of ROCK 2 assessed as residual enzyme activity at 10 uM.
The target in assay [2] is Serine/threonine-protein kinase PAK 5 (Homo sapiens) (UniProt Q9P286). Description: Inhibition of PAK5 assessed as residual enzyme activity at 10 uM.
Chain of Serine/threonine-protein kinase PAK 5 (Homo sapiens) (Q9P286 whole entry, looked up): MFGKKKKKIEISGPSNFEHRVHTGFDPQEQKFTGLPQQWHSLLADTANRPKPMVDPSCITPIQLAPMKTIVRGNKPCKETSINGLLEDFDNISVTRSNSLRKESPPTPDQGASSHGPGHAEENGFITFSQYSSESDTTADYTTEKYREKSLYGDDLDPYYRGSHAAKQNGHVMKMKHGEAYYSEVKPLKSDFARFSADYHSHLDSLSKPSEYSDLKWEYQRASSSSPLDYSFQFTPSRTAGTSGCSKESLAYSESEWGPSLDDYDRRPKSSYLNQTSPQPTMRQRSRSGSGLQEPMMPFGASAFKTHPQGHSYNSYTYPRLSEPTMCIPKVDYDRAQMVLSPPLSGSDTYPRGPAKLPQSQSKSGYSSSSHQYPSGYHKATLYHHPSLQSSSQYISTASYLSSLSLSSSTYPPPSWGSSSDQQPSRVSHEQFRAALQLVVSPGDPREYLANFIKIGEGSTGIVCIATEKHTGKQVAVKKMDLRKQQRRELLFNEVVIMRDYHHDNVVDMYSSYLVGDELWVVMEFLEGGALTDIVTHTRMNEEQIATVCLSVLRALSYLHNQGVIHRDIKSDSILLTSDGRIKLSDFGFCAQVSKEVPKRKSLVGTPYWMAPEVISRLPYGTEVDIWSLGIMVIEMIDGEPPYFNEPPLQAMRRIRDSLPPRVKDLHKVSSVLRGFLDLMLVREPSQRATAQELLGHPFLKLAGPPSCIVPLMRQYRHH
For assay [3], the target named is Insulin receptor-related protein (Homo sapiens, UniProt P14616). Description: Inhibition of IRR at 0.1 uM.
Chain of Insulin receptor-related protein (P14616 27-742 limits assumed): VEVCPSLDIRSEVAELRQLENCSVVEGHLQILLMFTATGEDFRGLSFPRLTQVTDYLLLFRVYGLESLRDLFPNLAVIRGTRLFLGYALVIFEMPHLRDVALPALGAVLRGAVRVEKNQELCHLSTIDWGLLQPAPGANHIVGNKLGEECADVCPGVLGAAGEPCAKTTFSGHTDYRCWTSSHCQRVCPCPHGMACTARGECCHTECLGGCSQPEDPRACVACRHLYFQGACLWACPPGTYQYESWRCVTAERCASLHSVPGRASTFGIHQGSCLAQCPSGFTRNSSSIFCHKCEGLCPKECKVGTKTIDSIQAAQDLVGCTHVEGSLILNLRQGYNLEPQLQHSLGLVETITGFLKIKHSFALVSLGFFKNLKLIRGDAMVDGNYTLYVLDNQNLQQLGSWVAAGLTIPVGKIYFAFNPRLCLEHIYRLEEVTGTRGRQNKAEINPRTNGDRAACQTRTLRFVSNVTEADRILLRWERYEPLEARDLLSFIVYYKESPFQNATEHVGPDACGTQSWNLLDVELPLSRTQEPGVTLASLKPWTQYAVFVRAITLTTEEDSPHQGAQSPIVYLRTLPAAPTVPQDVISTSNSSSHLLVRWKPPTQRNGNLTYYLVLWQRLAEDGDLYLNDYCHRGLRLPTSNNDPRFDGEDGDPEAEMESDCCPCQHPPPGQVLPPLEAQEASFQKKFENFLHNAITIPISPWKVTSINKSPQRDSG
Chain of Insulin receptor-related protein (P14616 747-1297 limits assumed): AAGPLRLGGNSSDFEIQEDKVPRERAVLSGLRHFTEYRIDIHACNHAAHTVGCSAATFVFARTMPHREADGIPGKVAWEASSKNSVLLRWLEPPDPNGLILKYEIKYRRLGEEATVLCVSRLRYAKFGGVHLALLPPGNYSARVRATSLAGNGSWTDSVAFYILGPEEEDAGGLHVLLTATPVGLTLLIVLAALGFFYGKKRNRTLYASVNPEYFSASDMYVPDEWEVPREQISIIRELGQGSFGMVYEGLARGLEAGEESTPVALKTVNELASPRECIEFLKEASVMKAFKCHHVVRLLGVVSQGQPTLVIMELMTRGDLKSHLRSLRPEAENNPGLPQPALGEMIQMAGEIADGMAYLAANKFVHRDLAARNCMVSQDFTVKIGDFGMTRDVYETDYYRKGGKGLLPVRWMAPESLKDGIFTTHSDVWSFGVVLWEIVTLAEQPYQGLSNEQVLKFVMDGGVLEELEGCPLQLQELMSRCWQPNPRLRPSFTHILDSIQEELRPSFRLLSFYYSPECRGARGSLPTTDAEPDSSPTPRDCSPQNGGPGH

Chain of Rho-associated protein kinase 2 (Homo sapiens) (O75116 whole entry, looked up): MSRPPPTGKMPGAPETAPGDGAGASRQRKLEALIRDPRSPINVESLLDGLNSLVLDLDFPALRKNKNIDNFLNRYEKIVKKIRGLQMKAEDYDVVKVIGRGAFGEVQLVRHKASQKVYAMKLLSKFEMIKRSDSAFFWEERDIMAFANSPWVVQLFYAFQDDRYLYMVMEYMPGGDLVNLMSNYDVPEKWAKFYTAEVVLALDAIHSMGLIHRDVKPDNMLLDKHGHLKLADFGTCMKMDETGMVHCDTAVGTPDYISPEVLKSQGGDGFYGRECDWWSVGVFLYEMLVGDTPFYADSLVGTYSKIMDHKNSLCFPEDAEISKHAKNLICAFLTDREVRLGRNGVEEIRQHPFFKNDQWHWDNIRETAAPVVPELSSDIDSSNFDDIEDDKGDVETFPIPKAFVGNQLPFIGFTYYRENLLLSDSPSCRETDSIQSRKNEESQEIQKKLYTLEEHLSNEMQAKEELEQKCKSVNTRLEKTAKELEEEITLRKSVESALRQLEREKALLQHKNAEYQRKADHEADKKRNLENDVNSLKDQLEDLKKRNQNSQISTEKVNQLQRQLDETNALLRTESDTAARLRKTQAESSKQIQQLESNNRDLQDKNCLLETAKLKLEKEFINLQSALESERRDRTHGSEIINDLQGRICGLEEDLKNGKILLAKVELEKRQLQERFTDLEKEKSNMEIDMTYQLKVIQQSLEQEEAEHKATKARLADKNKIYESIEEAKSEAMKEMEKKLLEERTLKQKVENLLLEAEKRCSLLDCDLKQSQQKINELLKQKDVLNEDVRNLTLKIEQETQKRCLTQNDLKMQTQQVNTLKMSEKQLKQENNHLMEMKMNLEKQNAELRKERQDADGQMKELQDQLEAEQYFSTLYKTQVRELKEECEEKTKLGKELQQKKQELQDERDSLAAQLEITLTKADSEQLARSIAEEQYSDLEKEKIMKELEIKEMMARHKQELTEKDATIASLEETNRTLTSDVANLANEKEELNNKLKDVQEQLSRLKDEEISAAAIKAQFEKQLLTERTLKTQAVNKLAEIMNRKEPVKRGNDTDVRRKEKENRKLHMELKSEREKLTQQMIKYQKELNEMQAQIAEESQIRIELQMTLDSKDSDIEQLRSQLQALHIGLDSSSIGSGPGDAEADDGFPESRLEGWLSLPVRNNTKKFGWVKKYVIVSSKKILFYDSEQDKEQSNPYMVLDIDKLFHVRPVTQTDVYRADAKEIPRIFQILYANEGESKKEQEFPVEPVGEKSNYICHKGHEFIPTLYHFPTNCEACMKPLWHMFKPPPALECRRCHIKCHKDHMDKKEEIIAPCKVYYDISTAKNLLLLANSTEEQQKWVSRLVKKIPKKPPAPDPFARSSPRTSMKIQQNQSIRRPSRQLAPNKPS

Broadly, the inhibition is the percentage by which the read-out fell short of the control. A higher inhibition goes with a response far below the control. With `CC(C)c1cnn2c(NCc3ccccc3)cc(N[C@@H](CO)[C@H](O)CO)nc12`, the figures for the Activity in assay [1] and in assay [2] were 102% and 65%, respectively. This compound also returned an inhibition in assay [3] of less than 50%.
